In this experiment the test system is human iPSC. Description: simultaneous multiplex mThy1 and mCD147 gene replacement in hiPSC. It counts as cell-based. From the text:
FIGS. 5A-B. Bcl-2 overexpression enables double homozygous targeted gene replacement in human iPSC. FIG. 5A. Mouse Thy1 gene targeting scheme (left). Mouse CD147 gene targeting scheme (right): Two sgRNAs target human BSG (CD147) within intron 1 (Left) or after the polyadenylation site (Right). The mouse CD147 targeting vector plasmid contains mCD147 coding exons 2-7, flanked by hCD147 homology arms outside the sgRNA sites—coding exon 1 (which encodes the signal peptide) is retained but the sgRNA sites are disrupted. FIG. 5B. Plain human iPSC were transfected with 1 μg each of the mThy1 and mCD147 targeting vectors together with a total of 2 μg “Cas9 only sgRNA” or “Cas9 Bcl-2 sgRNA” expression plasmid. Cells were transfected with the following sgRNA combinations: Thy1 Left and CD147 Left, Thy1 Right and CD147 Right, all four Thy1 and CD147 sgRNAs, or Negative sgRNA #1. Nine days later, cells were analyzed by flow cytometry for mThy1, hThy1, mCD147, and hCD147 expression. Upper two plots show the percent of Thy1 or CD147 gene replacement as gated on all live single iPSC. Lower four plots show the percent of CD147 gene replacement as gated on the Thy1 gene targeting quadrants. Results are representative of four independent experiments.
The U6 promoter-sgRNA (for each sgRNA sequence) was cloned into the EF1α promoter-Cas9 nuclease or EF1α promoter-Cas9 nuclease-IRES-Bcl-2 expression plasmids to form the “Cas9 only sgRNA” or “Cas9 Bcl-2 sgRNA” plasmids used in Examples 6 and 7.
Previously, low gene targeting frequencies in hiPSC could be overcome by clever enrichment or selection schemes. However, for simultaneous multiplex gene targeting, a higher absolute frequency is needed. […] Plain hiPSC were transfected with both mThy1 and mCD147 targeting vectors together with the “Cas9 only sgRNA” or “Cas9 Bcl-2 sgRNA” plasmids. Combinations of both Left sgRNAs, both Right sgRNAs, all four sgRNAs, or a negative control sgRNA were used. Cultures were then analyzed by flow cytometry for hThy1, mThy1, hCD147, and mCD147 expression. […] When cell populations were gated on homozygous mThy1 gene replacement (red) and then analyzed for mCD147 gene replacement, we found an enrichment of mCD147 events, rather than an independent assortment of gene editing outcomes. Likewise, when all four sgRNAs were transfected, the mThy1^−hThy1^− double negative population (blue) contained an enriched proportion of mCD147^−hCD147^− cells. Even considering an overall transfection rate of 60-70%, these enrichments indicate that hiPSC may be poised for either HR or NHEJ at various periods. With Bcl-2, the frequency of HR-mediated double homozygous gene replacements (mThy1^+hThy1^− mCD147^+hCD147^−) increased by an order of magnitude (Left sgRNAs: from 0.02% to 0.16%; Right sgRNAs: from 0.01% to 0.37%). […]

With “Bcl-2: B cell lymphoma 2 protein, anti-apoptotic, overexpressed from lentivirus or Cas9 plasmid”, the “frequency of HR-mediated double homozygous gene replacements (mThy1+hThy1- mCD147+hCD147-)” value reads like this: (Left sgRNAs, with Bcl-2 (from 0.02% without)) 0.16%; (Right sgRNAs, with Bcl-2 (from 0.01% without)) 0.37%. The “NHEJ-mediated quadruple-negative deletions (mThy1-hThy1- mCD147-hCD147-)” value (all four sgRNAs, with Bcl-2 (from 0.7% without)) is 1.1%. In addition, the gene editing frequencies entry (multiplex mThy1 and mCD147 targeting, every sgRNA combination) is “improved gene editing frequencies”.
